Measured values taken from patent US10413535B2, “Pharmaceutical compositions comprising an integrin ALPHA4 antagonist for use in treating ocular inflammatory conditions” (AXEROVISION, INC., priority 2015, dated 2019).
Read-outs that look alike come from different tables or passages of the source.

Key:
[1] = tested on: J6 cell adhesion to MAdCAM; experiment: MAdCAM cell adhesion assay, J6 cells; format: cell-based, human
Description: Jurkat J6 cells (human lymphoblast cell line) were grown as a suspension culture in RPMI 1640 supplemented with FCS (10%) and glutamine (2 mM). RPMI8866 cells (human B lymphoid cell line) were grown as a suspension culture in RPMI 1640 supplemented with FCS (10%) and glutamine (2 mM). RBL-2H3 cells (rat basophilic cell line) were cultured in Eagle's MEM plus Earles salts supplemented with 2 mM L-glutamine, 1 mM sodium pyruvate, 1× non-essential amino acids, 1 mM Na pyruvate 10% heat inactivated foetal calf serum.
Polystyrene 96-well microtitre plates were coated with IgG at a concentration of 0.05 mg/mL in bicarbonate buffer for 2.5 hours at 37° C. The solution was aspirated and the plates washed twice with PBS. The plates were then incubated overnight at 4° C. with MAdCAM at a concentration of 204.0 ng/mL in 3% BSA in PBS. Prior to use the MAdCAM was aspirated and the plates washed twice with PBS. J6 or RPMI cells (as required) were labelled with the fluorescent dye BCECF-AM (10 μM and 6×10^6 cells/mL) for 10 min at 37° C. before the excess was removed by centrifugation at 500 g for 5 min and the cells resuspended at a cell concentration of 1.2×10^7 cells/mL in HBSS. Equal volumes of HBSS containing the compound of formula I (over concentration range 38.1 pM to 10 μM) and cells were added to the MAdCAM coated plates. […] The plates were counted in a Wallac Viktor.

[2] = Toxicokinetics in 13-week topical ocular rabbit study; conditions: New Zealand White, in vivo, topical or ocular
Description: GW559090A was given to New Zealand White Rabbits by topical ocular administration for 13 weeks. Animals were dosed six or twelve times per day, with one hour between doses. Treatment groups were: (1) vehicle (12 times a day), (2) 30 mg/mL/occasion given six times a day, (3) 50 mg/mL/occasion given six times a day, or (4) 50 mg/mL/occasion, given 12 times a day.
GW559090A was formulated as a stock solution in 25 mM phosphate buffer with 0.5% sodium chloride to provide a 50 mg/mL stock solution, which was used for administration to Groups 3 or 4, or further diluted with 25 mM phosphate buffer with 0.75% sodium chloride to provide a 30 mg/mL solution for administration to Group 2. Control animals were treated with the vehicle for 50 mg/mL solution (25 mM phosphate buffer with 0.5% sodium chloride).
During the 13 week treatment period rabbits received daily topical ocular doses of GW559090A or vehicle at a constant dose volume of 0.06 mL (given 6 or 12 times a day, with one hour between doses). The test article formulation or vehicle was carefully dropped into the partially everted lower eyelid of the right eye from a suitable distance, to prevent contact of the positive displacement pipette with the eye. The lower and upper lids were then gently held together for approximately five seconds, to prevent loss of dose and aid even distribution across the external ocular surface. The un-dosed eye was not manipulated at any time and served as a within animal untreated control site.

[3] = female, 30 mg/mL/occasion, female rabbits, 30 mg/mL, 6 daily doses, Day 1, after the first daily dose
[4] = female, 30 mg/mL/occasion, female rabbits, 30 mg/mL, 6 daily doses, Week 4, after the first daily dose
[5] = female, 30 mg/mL/occasion, female rabbits, 30 mg/mL, 6 daily doses, Week 13, after the first daily dose
[6] = female, 50 mg/mL/occasion, female rabbits, 50 mg/mL, 6 daily doses, Day 1, after the first daily dose
[7] = female, 50 mg/mL/occasion, female rabbits, 50 mg/mL, 6 daily doses, Week 4, after the first daily dose
[8] = female, 50 mg/mL/occasion, female rabbits, 50 mg/mL, 6 daily doses, Week 13, after the first daily dose
[9] = female, 50 mg/mL/occasion, female rabbits, 50 mg/mL, 12 daily doses, Day 1, after the first daily dose
[10] = female, 50 mg/mL/occasion, female rabbits, 50 mg/mL, 12 daily doses, Week 4, after the first daily dose
[11] = female, 50 mg/mL/occasion, female rabbits, 50 mg/mL, 12 daily doses, Week 14, after the first daily dose
[12] = male, 30 mg/mL/occasion, male rabbits, 30 mg/mL, 6 daily doses, Day 1, after the first daily dose
[13] = male, 30 mg/mL/occasion, male rabbits, 30 mg/mL, 6 daily doses, Week 4, after the first daily dose
[14] = male, 30 mg/mL/occasion, male rabbits, 30 mg/mL, 6 daily doses, Week 13, after the first daily dose
[15] = male, 50 mg/mL/occasion, male rabbits, 50 mg/mL, 6 daily doses, Day 1, after the first daily dose
[16] = male, 50 mg/mL/occasion, male rabbits, 50 mg/mL, 6 daily doses, Week 4, after the first daily dose
[17] = male, 50 mg/mL/occasion, male rabbits, 50 mg/mL, 6 daily doses, Week 13, after the first daily dose
[18] = male, 50 mg/mL/occasion, male rabbits, 50 mg/mL, 12 daily doses, Day 1, after the first daily dose
[19] = male, 50 mg/mL/occasion, male rabbits, 50 mg/mL, 12 daily doses, Week 4, after the first daily dose
[20] = male, 50 mg/mL/occasion, male rabbits, 50 mg/mL, 12 daily doses, Week 14, after the first daily dose

Cc1ccccc1OCC(=O)N[C@@H](CC(C)C)C(=O)N[C@@H](Cc1ccc(OC(=O)N2CCC(C(N)=O)CC2)cc1)C(=O)O [GW559090, (2S)-3-[4-({[4-(Aminocarbonyl)-1-piperidinyl]carbonyl}oxy)phenyl]-2-[((2S)-4-methyl-2-{[2-(2-methylphenoxy)acetyl]amino}pentanoyl)amino]propanoic acid]
Inhibition of J6 cell adhesion to MAdCAM (curve form) [1]: biphasic
Cmax [2, 3]: 16 ng/mL
Tmax [2, 3]: 4.98 min
AUC(0-t) ([2]; female, 30 mg/mL/occasion, female rabbits, 30 mg/mL, 6 daily doses, Day 1, read-out: AUC0-1): 4.19 ng·h/mL
AUC(0-t) ([2]; female, 30 mg/mL/occasion, female rabbits, 30 mg/mL, 6 daily doses, Day 1, read-out: AUC0-24): 25.1 ng·h/mL
Cmax [2, 4]: 32.4 ng/mL
Tmax [2, 4]: 4.98 min
AUC(0-t) ([2]; female, 30 mg/mL/occasion, female rabbits, 30 mg/mL, 6 daily doses, Week 4, read-out: AUC0-1): 10.6 ng·h/mL
AUC(0-t) ([2]; female, 30 mg/mL/occasion, female rabbits, 30 mg/mL, 6 daily doses, Week 4, read-out: AUC0-24): 63.6 ng·h/mL
Cmax [2, 5]: 23.5 ng/mL
Tmax [2, 5]: 15 min
AUC(0-t) ([2]; female, 30 mg/mL/occasion, female rabbits, 30 mg/mL, 6 daily doses, Week 13, read-out: AUC0-1): 9.83 ng·h/mL
AUC(0-t) ([2]; female, 30 mg/mL/occasion, female rabbits, 30 mg/mL, 6 daily doses, Week 13, read-out: AUC0-24): 59 ng·h/mL
Cmax [2, 6]: 67.8 ng/mL
Tmax [2, 6]: 4.98 min
AUC(0-t) ([2]; female, 50 mg/mL/occasion, female rabbits, 50 mg/mL, 6 daily doses, Day 1, read-out: AUC0-1): 11 ng·h/mL
AUC(0-t) ([2]; female, 50 mg/mL/occasion, female rabbits, 50 mg/mL, 6 daily doses, Day 1, read-out: AUC0-24): 66 ng·h/mL
Cmax [2, 7]: 44.4 ng/mL
Tmax [2, 7]: 4.98 min
AUC(0-t) ([2]; female, 50 mg/mL/occasion, female rabbits, 50 mg/mL, 6 daily doses, Week 4, read-out: AUC0-1): 12.6 ng·h/mL
AUC(0-t) ([2]; female, 50 mg/mL/occasion, female rabbits, 50 mg/mL, 6 daily doses, Week 4, read-out: AUC0-24): 75.6 ng·h/mL
Cmax [2, 8]: 49.7 ng/mL
Tmax [2, 8]: 4.98 min
AUC(0-t) ([2]; female, 50 mg/mL/occasion, female rabbits, 50 mg/mL, 6 daily doses, Week 13, read-out: AUC0-1): 15.7 ng·h/mL
AUC(0-t) ([2]; female, 50 mg/mL/occasion, female rabbits, 50 mg/mL, 6 daily doses, Week 13, read-out: AUC0-24): 94.2 ng·h/mL
Cmax [2, 9]: 30.6 ng/mL
Tmax [2, 9]: 4.98 min
AUC(0-t) ([2]; female, 50 mg/mL/occasion, female rabbits, 50 mg/mL, 12 daily doses, Day 1, read-out: AUC0-1): 7.3 ng·h/mL
AUC(0-t) ([2]; female, 50 mg/mL/occasion, female rabbits, 50 mg/mL, 12 daily doses, Day 1, read-out: AUC0-24): 87.6 ng·h/mL
Cmax [2, 10]: 56.6 ng/mL
Tmax [2, 10]: 4.98 min
AUC(0-t) ([2]; female, 50 mg/mL/occasion, female rabbits, 50 mg/mL, 12 daily doses, Week 4, read-out: AUC0-1): 13.1 ng·h/mL
AUC(0-t) ([2]; female, 50 mg/mL/occasion, female rabbits, 50 mg/mL, 12 daily doses, Week 4, read-out: AUC0-24): 157 ng·h/mL
Cmax [2, 11]: 68 ng/mL
Tmax [2, 11]: 4.98 min
AUC(0-t) ([2]; female, 50 mg/mL/occasion, female rabbits, 50 mg/mL, 12 daily doses, Week 14, read-out: AUC0-1): 35.5 ng·h/mL
AUC(0-t) ([2]; female, 50 mg/mL/occasion, female rabbits, 50 mg/mL, 12 daily doses, Week 14, read-out: AUC0-24): 426 ng·h/mL
Cmax [2, 12]: 30.8 ng/mL
Tmax [2, 12]: 4.98 min
AUC(0-t) ([2]; male, 30 mg/mL/occasion, male rabbits, 30 mg/mL, 6 daily doses, Day 1, read-out: AUC0-1): 7.86 ng·h/mL
AUC(0-t) ([2]; male, 30 mg/mL/occasion, male rabbits, 30 mg/mL, 6 daily doses, Day 1, read-out: AUC0-24): 47.2 ng·h/mL
Cmax [2, 13]: 51.4 ng/mL
Tmax [2, 13]: 4.98 min
AUC(0-t) ([2]; male, 30 mg/mL/occasion, male rabbits, 30 mg/mL, 6 daily doses, Week 4, read-out: AUC0-1): 9.23 ng·h/mL
AUC(0-t) ([2]; male, 30 mg/mL/occasion, male rabbits, 30 mg/mL, 6 daily doses, Week 4, read-out: AUC0-24): 55.4 ng·h/mL
Cmax [2, 14]: 11.8 ng/mL
Tmax [2, 14]: 4.98 min
AUC(0-t) ([2]; male, 30 mg/mL/occasion, male rabbits, 30 mg/mL, 6 daily doses, Week 13, read-out: AUC0-1): 9.1 ng·h/mL
AUC(0-t) ([2]; male, 30 mg/mL/occasion, male rabbits, 30 mg/mL, 6 daily doses, Week 13, read-out: AUC0-24): 54.6 ng·h/mL
Cmax [2, 15]: 105 ng/mL
Tmax [2, 15]: 4.98 min
AUC(0-t) ([2]; male, 50 mg/mL/occasion, male rabbits, 50 mg/mL, 6 daily doses, Day 1, read-out: AUC0-1): 14.4 ng·h/mL
AUC(0-t) ([2]; male, 50 mg/mL/occasion, male rabbits, 50 mg/mL, 6 daily doses, Day 1, read-out: AUC0-24): 86.4 ng·h/mL
Cmax [2, 16]: 80.4 ng/mL
Tmax [2, 16]: 4.98 min
AUC(0-t) ([2]; male, 50 mg/mL/occasion, male rabbits, 50 mg/mL, 6 daily doses, Week 4, read-out: AUC0-1): 17.9 ng·h/mL
AUC(0-t) ([2]; male, 50 mg/mL/occasion, male rabbits, 50 mg/mL, 6 daily doses, Week 4, read-out: AUC0-24): 107 ng·h/mL
Cmax [2, 17]: 32.2 ng/mL
Tmax [2, 17]: 4.98 min
AUC(0-t) ([2]; male, 50 mg/mL/occasion, male rabbits, 50 mg/mL, 6 daily doses, Week 13, read-out: AUC0-1): 17.6 ng·h/mL
AUC(0-t) ([2]; male, 50 mg/mL/occasion, male rabbits, 50 mg/mL, 6 daily doses, Week 13, read-out: AUC0-24): 106 ng·h/mL
Cmax [2, 18]: 66.3 ng/mL
Tmax [2, 18]: 4.98 min
AUC(0-t) ([2]; male, 50 mg/mL/occasion, male rabbits, 50 mg/mL, 12 daily doses, Day 1, read-out: AUC0-1): 12.1 ng·h/mL
AUC(0-t) ([2]; male, 50 mg/mL/occasion, male rabbits, 50 mg/mL, 12 daily doses, Day 1, read-out: AUC0-24): 145 ng·h/mL
Cmax [2, 19]: 41.4 ng/mL
Tmax [2, 19]: 4.98 min
AUC(0-t) ([2]; male, 50 mg/mL/occasion, male rabbits, 50 mg/mL, 12 daily doses, Week 4, read-out: AUC0-1): 11.6 ng·h/mL
AUC(0-t) ([2]; male, 50 mg/mL/occasion, male rabbits, 50 mg/mL, 12 daily doses, Week 4, read-out: AUC0-24): 139 ng·h/mL
Cmax [2, 20]: 38.1 ng/mL
Tmax [2, 20]: 30 min
AUC(0-t) ([2]; male, 50 mg/mL/occasion, male rabbits, 50 mg/mL, 12 daily doses, Week 14, read-out: AUC0-1): 19.6 ng·h/mL
AUC(0-t) ([2]; male, 50 mg/mL/occasion, male rabbits, 50 mg/mL, 12 daily doses, Week 14, read-out: AUC0-24): 235 ng·h/mL
